Drawing on doi:10.1101/2024.08.19.608619, “Discovery of potent SARS-CoV-2 nsp3 macrodomain inhibitors uncovers lack of translation to cellular antiviral response” (bioRxiv, 2024), this text covers remaining activity for eight molecules.

What all share (test): biochemical
What all share (design): In vitro kinase panel profiling, per cent remaining kinase activity at 10 uM

Assay [1] has as its target T1, IKKα(h) (Homo sapiens, UniProt O15111).
T1 construct: gene CHUK
T1 sequence (O15111 1-745): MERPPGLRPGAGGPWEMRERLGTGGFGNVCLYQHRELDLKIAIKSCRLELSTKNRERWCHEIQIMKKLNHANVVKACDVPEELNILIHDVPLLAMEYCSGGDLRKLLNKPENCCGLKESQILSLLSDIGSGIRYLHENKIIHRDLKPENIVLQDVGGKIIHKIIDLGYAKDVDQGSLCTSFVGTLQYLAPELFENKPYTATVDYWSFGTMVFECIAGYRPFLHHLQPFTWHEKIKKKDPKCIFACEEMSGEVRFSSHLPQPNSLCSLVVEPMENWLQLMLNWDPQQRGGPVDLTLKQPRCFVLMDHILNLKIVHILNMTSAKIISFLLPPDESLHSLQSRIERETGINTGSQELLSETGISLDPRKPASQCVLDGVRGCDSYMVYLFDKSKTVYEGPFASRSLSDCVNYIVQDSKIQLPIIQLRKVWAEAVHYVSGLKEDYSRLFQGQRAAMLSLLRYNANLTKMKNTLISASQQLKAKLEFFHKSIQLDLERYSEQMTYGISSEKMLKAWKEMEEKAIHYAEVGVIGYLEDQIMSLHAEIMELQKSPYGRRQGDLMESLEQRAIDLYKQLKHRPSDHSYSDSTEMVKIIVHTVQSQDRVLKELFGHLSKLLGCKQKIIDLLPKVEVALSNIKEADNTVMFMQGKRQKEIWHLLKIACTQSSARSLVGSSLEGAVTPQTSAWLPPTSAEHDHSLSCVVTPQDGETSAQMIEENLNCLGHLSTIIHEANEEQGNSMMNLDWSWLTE
The settings on record: atp_concentration=10, read-out: % of control remaining. From the text: (§1) We derisk potential for off-target activity by profiling the compound in a CEREP panel, a standard secondary pharmacology assessment, as well as a kinase panel to derisk a potential hinge-binding motif in our leads, and a PARP panel to derisk activity against human […]. Reassuringly, the compounds are selective, with the only off-targets being moderate human CHRM2 and KOR receptors activity associated with ASAP-0011198.

The target in assay [2] is T2, Aurora-A(h) (Homo sapiens, UniProt O14965).
T2 construct: gene AURKA
T2 sequence (O14965 1-403): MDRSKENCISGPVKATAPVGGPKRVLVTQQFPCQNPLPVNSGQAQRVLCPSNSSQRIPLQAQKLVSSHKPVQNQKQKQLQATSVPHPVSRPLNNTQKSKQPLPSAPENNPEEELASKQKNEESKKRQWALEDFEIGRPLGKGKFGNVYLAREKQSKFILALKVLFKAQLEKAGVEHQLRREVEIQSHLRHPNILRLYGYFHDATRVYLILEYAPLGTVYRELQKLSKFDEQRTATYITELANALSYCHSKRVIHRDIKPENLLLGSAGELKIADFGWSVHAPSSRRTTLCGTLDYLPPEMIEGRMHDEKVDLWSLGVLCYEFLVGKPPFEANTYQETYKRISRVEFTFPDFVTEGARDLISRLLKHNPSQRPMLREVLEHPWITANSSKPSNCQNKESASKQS
The conditions noted are these: atp_concentration=15, read-out: % of control remaining.
Excerpt: as §1

The target of assay [3] is T3, Pim-1(h) (Homo sapiens, UniProt P11309).
T3 construct: gene PIM1
The conditions noted are these: atp_concentration=90, read-out: % of control remaining.
Excerpt: as §1

The target of assay [4] is T4, CK1γ1(h) (Homo sapiens, UniProt Q9HCP0).
T4 construct: gene CSNK1G1
The conditions noted are these: atp_concentration=15, read-out: % of control remaining.
Excerpt: as §1

Assay [5] addresses T5, MLK1(h) (Homo sapiens, UniProt P80192).
T5 construct: gene MAP3K9
The conditions noted are these: atp_concentration=45, read-out: % of control remaining.
Excerpt: as §1

Assay [6] concerns the target CDK1/cyclinB(h) (Homo sapiens, UniProt P06493). The conditions noted are these: atp_concentration=45, read-out: % of control remaining.
Excerpt: as §1

Assay [7] addresses T6, TAK1(h) (Homo sapiens, UniProt O43318).
T6 construct: gene MAP3K7
T6 sequence (O43318 1-606): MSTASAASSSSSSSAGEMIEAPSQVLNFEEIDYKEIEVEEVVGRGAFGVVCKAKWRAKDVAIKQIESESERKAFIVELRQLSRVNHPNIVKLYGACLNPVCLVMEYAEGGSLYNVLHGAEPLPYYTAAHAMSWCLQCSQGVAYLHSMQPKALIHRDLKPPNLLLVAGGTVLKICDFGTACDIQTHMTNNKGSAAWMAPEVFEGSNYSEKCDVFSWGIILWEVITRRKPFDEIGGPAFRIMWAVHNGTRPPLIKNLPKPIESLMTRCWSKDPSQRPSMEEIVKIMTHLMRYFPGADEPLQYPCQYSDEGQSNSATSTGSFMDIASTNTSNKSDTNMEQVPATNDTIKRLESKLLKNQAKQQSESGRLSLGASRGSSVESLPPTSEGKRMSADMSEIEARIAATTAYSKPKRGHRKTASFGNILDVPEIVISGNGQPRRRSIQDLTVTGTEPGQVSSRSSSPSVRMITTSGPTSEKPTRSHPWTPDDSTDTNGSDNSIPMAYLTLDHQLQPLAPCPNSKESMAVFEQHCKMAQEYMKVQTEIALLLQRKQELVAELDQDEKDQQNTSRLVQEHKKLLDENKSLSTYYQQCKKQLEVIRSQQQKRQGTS
The conditions noted are these: atp_concentration=45, read-out: % of control remaining.
Excerpt: as §1

Like-named read-outs stand apart in the source and are kept apart here.

T3 sequence (P11309 whole entry): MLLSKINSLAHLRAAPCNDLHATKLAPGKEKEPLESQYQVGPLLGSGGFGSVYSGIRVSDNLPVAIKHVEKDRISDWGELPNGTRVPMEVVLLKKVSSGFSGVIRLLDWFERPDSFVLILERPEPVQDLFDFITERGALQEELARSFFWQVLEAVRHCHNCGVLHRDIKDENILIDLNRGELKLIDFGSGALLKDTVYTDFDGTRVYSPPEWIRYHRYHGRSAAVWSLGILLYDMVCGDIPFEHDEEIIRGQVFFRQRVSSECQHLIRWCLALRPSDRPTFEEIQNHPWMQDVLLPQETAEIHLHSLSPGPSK
CDK1/cyclinB(h), sequence (P06493 whole entry): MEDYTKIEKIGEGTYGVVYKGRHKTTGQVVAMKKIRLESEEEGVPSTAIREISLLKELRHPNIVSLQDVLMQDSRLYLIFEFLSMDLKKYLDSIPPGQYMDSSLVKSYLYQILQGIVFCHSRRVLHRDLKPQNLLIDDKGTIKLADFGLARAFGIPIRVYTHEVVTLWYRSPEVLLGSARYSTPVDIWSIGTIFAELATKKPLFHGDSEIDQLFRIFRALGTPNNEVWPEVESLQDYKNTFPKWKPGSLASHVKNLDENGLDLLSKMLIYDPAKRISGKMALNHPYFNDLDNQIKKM
CDK1/cyclinB(h), sequence (P14635 whole entry partner): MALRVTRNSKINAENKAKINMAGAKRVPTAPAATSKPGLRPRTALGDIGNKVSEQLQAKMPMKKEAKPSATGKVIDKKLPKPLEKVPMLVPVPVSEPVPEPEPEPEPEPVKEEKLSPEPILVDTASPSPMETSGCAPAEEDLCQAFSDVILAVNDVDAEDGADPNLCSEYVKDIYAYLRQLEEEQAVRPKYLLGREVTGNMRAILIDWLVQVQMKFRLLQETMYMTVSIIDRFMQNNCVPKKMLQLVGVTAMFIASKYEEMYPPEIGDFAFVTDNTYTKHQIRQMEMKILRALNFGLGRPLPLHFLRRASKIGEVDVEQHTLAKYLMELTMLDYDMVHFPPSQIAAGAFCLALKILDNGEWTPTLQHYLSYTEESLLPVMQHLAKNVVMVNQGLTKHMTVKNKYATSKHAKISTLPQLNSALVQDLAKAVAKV
T4 sequence (Q9HCP0 whole entry): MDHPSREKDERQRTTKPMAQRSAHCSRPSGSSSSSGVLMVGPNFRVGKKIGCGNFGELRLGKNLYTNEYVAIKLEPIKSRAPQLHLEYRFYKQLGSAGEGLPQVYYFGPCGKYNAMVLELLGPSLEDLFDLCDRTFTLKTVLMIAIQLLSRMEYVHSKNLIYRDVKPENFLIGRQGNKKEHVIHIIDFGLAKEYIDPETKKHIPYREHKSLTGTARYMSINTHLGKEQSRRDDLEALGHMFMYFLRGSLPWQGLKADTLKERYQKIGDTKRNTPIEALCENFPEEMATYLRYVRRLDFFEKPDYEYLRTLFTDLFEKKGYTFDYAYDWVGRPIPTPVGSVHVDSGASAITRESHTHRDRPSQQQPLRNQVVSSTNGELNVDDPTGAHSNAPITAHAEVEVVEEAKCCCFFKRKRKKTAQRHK
T5 sequence (P80192 whole entry): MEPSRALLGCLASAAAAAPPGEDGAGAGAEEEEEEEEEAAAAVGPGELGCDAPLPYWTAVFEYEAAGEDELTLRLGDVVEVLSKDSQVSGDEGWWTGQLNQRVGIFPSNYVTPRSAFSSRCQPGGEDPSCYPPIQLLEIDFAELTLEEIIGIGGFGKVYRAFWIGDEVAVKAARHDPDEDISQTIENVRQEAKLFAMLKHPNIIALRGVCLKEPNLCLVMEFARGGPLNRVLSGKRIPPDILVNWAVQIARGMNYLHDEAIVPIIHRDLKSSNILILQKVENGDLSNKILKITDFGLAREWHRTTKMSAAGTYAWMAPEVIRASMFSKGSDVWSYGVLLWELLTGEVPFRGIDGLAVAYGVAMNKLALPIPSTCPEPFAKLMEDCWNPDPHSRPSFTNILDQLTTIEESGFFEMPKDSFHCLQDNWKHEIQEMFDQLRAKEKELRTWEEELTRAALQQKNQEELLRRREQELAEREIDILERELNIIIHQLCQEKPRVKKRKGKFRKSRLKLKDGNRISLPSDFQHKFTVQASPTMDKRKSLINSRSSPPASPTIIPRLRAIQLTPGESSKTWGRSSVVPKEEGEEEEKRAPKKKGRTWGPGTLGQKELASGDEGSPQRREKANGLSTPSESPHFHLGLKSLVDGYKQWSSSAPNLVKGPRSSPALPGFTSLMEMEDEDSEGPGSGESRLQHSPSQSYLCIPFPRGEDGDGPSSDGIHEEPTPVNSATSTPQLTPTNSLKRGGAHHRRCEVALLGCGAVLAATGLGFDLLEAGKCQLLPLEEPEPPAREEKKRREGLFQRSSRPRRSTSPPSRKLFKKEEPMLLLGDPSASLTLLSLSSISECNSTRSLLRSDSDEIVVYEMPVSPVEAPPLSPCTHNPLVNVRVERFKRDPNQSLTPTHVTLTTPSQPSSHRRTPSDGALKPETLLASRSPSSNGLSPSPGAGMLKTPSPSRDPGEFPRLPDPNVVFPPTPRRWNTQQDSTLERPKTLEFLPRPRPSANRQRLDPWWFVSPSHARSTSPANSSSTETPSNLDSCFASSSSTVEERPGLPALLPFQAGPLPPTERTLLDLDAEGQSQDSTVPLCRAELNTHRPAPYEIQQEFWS

With `CC(C)[C@@H](Nc1ncnc2[nH]c(-c3cnn(C)c3C#N)cc12)c1ccc2c(n1)OCCO2` [ASAP-0010716], the remaining activity at 10 µM in assay [1] (batch_name=ASAP-0010716-002) worked out at 104%; in assay [2] (batch_name=ASAP-0010716-002), 58%; in assay [3] (batch_name=ASAP-0010716-002) it was 99%; in assay [4] (batch_name=ASAP-0010716-002) it was 99%; in assay [5] (batch_name=ASAP-0010716-002), 82%; in assay [6] (batch_name=ASAP-0010716-002), 88%. Moreover, the remaining activity at 10 µM in assay [7] (batch_name=ASAP-0010716-002) is 100%.
Turning to `Cn1ncc(-c2cc3c(N[C@@H](c4ccc5c(n4)OCCO5)C(C)(C)C)ncnc3[nH]2)c1C#N` [ASAP-0011221], the remaining activity at 10 µM was 125% in assay [1] (batch_name=ASAP-0011221-002); 95% in assay [2] (batch_name=ASAP-0011221-002); 107% in assay [3] (batch_name=ASAP-0011221-002); 94% in assay [4] (batch_name=ASAP-0011221-002); 94% in assay [5] (batch_name=ASAP-0011221-002); 97% in assay [6] (batch_name=ASAP-0011221-002). The remaining activity at 10 µM in assay [7] (batch_name=ASAP-0011221-002) is 95%.
As to `CC(C)C(Nc1ncnc2[nH]c(C(=O)NC3CCN(C)C3)cc12)c1ccc2c(c1)S(=O)(=O)CCC2` (centres unmarked) [ASAP-0011198], the remaining activity at 10 µM in assay [1] (batch_name=ASAP-0011198-002) came out at 82%; in assay [2] (batch_name=ASAP-0011198-002), 97%; in assay [3] (batch_name=ASAP-0011198-002) it was 97%; in assay [4] (batch_name=ASAP-0011198-002), 100%; in assay [5] (batch_name=ASAP-0011198-002), 96%; in assay [6] (batch_name=ASAP-0011198-002), 103%. Also, the remaining activity at 10 µM in assay [7] (batch_name=ASAP-0011198-002) worked out at 100%.
For `CC(C)[C@H](Nc1ncnc2[nH]ccc12)c1ccc2c(c1)S(=O)(=O)CCC2` [ASAP-0008674], the remaining activity at 10 µM in assay [1] (batch_name=ASAP-0008674-002) stood at 92%; in assay [2] (batch_name=ASAP-0008674-002), 51%; in assay [3] (batch_name=ASAP-0008674-002), 91%; in assay [4] (batch_name=ASAP-0008674-002), 97%; in assay [5] (batch_name=ASAP-0008674-002), 84%; in assay [6] (batch_name=ASAP-0008674-002) it was 93%. In assay [7] (batch_name=ASAP-0008674-002), the remaining activity at 10 µM was found to be 90%.
Turning to `CC(C)[C@@H](Nc1ncnc2[nH]c(-c3cnn(C)c3C#N)cc12)c1ccc2c(n1)OCCO2` [ASAP-0008418], the remaining activity at 10 µM in assay [1] (batch_name=ASAP-0008418-001) came out at 111%; in assay [2] (batch_name=ASAP-0008418-001), 44%; in assay [3] (batch_name=ASAP-0008418-001) it was 79%; in assay [4] (batch_name=ASAP-0008418-001), 87%; in assay [5] (batch_name=ASAP-0008418-001) it was 81%; in assay [6] (batch_name=ASAP-0008418-001), 95%. For the same molecule, the remaining activity at 10 µM in assay [7] (batch_name=ASAP-0008418-001) stood at 103%.
`COc1ccc([C@@H](Cc2nnn[nH]2)NC(=O)c2ncnc3[nH]ccc23)cc1` [ASAP-0008340]: the remaining activity at 10 µM worked out at 99% in assay [1] (batch_name=ASAP-0008340-001); 71% in assay [2] (batch_name=ASAP-0008340-001); 91% in assay [3] (batch_name=ASAP-0008340-001); 95% in assay [4] (batch_name=ASAP-0008340-001); 85% in assay [5] (batch_name=ASAP-0008340-001); 108% in assay [6] (batch_name=ASAP-0008340-001). For the same molecule, the remaining activity at 10 µM in assay [7] (batch_name=ASAP-0008340-001) came out at 88%.
On to `Cc1nn(C)cc1-c1cc2c(NC(c3ccc4c(c3)S(=O)(=O)CCC4)C(C)C)ncnc2[nH]1` (centres unmarked) [ASAP-0011446], for which the remaining activity at 10 µM in assay [1] (batch_name=ASAP-0011446-002) is 94%; in assay [2] (batch_name=ASAP-0011446-002) it was 55%; in assay [3] (batch_name=ASAP-0011446-002), 95%; in assay [4] (batch_name=ASAP-0011446-002) it was 99%; in assay [5] (batch_name=ASAP-0011446-002), 79%; in assay [6] (batch_name=ASAP-0011446-002) it was 91%. In assay [7] (batch_name=ASAP-0011446-002), the remaining activity at 10 µM stood at 100%.
Take `CNCc1cc(-c2cc3c(N[C@@H](c4ccc5c(c4)S(=O)(=O)CCC5)C(C)C)ncnc3[nH]2)co1` [ASAP-0011176]: the remaining activity at 10 µM in assay [1] (batch_name=ASAP-0011176-002) is 79%; in assay [2] (batch_name=ASAP-0011176-002), 73%; in assay [3] (batch_name=ASAP-0011176-002) it was 93%; in assay [4] (batch_name=ASAP-0011176-002), 99%; in assay [5] (batch_name=ASAP-0011176-002) it was 86%; in assay [6] (batch_name=ASAP-0011176-002), 97%. Also, the remaining activity at 10 µM in assay [7] (batch_name=ASAP-0011176-002) turned out to be 90%.
